According to US8252807B2, “Methods of inhibiting the interaction between S100 and the receptor for advanced glycation end-products” (Board of Regents, The University of Texas System, priority 2007, dated 2012):

Tests used:
Panc-1 cells = experiment: Matrigel invasion assay, Panc-1; assay type: cell-based; settings: 24 hours
Procedure: FIGS. 2A-2D show the effect of cromolyn on pancreatic cancer cell invasion. Panc-1 and BxPC-3 cells were plated in Bio-coat matrigel and control chambers and cultured in serum-free culture media. After 24 hours non-invaded cells in the upper chamber were removed, and cells that invaded onto the lower surface of the membrane were counted from five adjacent fields. […] Data are expressed as the percent invasion through the matrigel matrix and membrane relative to migration through the control membrane. Means and 95% confidence intervals from three independent experiments performed in triplicate are shown. Two-tailed two-sample (unpaired) Student's t-tests were used to determine P values.
(§1) Panc-1 and BxPC-3 cells were seeded in BIOCOAT matrigel invasion chambers and in control chambers without matrigel (Becton-Dickinson, Bedford, Mass.) according to the manufacturer's protocol. Panc-1 cells were seeded with S100P (100 nM) with or without cromolyn (100 μM), and BxPC-3 cells were seeded with or without cromolyn (1-100 μM). Briefly, 2.0×10^5 cells in 300 μL top solution (serum-free media) were added to each chamber and allowed to invade matrigel for 24 hours at 37° C. in a 5% CO2 atmosphere. The non-invading cells on the upper surface of membrane were removed from the chambers with a cotton swab, and the invading cells on the lower surface of the membrane were fixed and stained using a Diff-Quick stain kit (Becton Dickinson, Bedford, Mass.). After two washes with water, the chambers were allowed to air dry. The numbers of invading cells in five adjacent microscope fields per membrane were counted at 20× magnification to obtain the average number of cells per field. Data are expressed as the percent invasion through the matrigel matrix and membrane relative to the migration through the control membrane. The assays were performed three times.

BxPC-3 cells [1] = experiment: Matrigel invasion assay, BxPC-3; assay type: cell-based; settings: 24 hours; for BxPC-3 cells invaded, mean: 0 μM mean=19.3%
Procedure: as §1, with “FIGS. 2A-2D show the effect of cromolyn on pancreatic cancer cell invasion. Panc-1 and BxPC-3 cells were plated in Bio-coat matrigel and control chambers and cultured in serum-free culture media. After 24 hours non-invaded cells in the upper chamber were removed, and cells that invaded onto the lower surface of the membrane were counted from five adjacent fields. […] Data are expressed as the percent invasion through the matrigel matrix and membrane relative to migration through the control membrane. Means and 95% confidence intervals from three independent experiments performed in triplicate are shown. Two-tailed two-sample (unpaired) Student's t-tests were used to determine P values. Panc-1 and” for “Panc-1 and”

BxPC-3 cells [2] = experiment: BxPC-3 cell viability, 72 hours; assay type: cell-based
Procedure: BxPC-3 cells were plated at 1.0×10^3 cells/well and treated with 0 μM, 1 μM, 10 μM, and 100 μM of cromolyn or C5 alone or in combination with gemcitabine 1 μM and cell viability was analyzed after 72 hours. Two-tailed two-sample (unpaired) Student's t-tests were used to determine P values. […] BxPC-3 cells were plated at 1.0×10^3 cells/well and treated with either 100 μM of cromolyn or 1 μM C5 alone or in combination with gemcitabine (1 μM) and cell viability was analyzed after 72 hours.

[3] = system: S100s A1, B, A12, and A13; settings: previously found; cited from earlier work
[4] = background statement; cited from earlier work
S100P binding with RAGE = target: T1, S100P binding with RAGE (Homo sapiens, UniProt P25815); experiment: S100P binding with RAGE ELISA (sRAGE coated plate)
T1 construct: full-length human S100P cDNA (NM_005980) was cloned into the pTrcHis2 vector; His tag
T1 sequence (P25815 1-95): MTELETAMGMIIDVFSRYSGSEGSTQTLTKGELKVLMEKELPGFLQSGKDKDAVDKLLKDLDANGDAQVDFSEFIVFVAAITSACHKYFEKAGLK
Procedure: After removing un-bound S100P by washing with detergent, the bound S100P and RAGE complex was quantified by adding HRP labeled antibody against S100P. *, P=0.04 C5 μM versus cromolyn 5 μM. Two-tailed two-sample (unpaired) Student's t-tests were used to determine P values.

## O=C(O)c1cc(=O)c2c(OCC(O)COc3cccc4oc(C(=O)O)cc(=O)c34)cccc2o1 [cromolyn, disodium 1,3-bis[(2′-carboxylatochromon-5′-yl)oxy]-2-hydroxypropane]
Panc-1 cells
  Panc-1 cells invaded, difference S100P versus S100P+cromolyn: 48.6%
Panc-1 cells; S100P 100 nM + cromolyn 100 μM
  Panc-1 cells invaded, mean: 9.4%
Panc-1 cells; no S100P
  Panc-1 basal cell invasion: did not reduce basal cell invasion
BxPC-3 cells [1]; cromolyn 10 μM
  BxPC-3 cells invaded, difference versus 0 μM: 10.0%
  BxPC-3 cells invaded, mean: 9.3%
BxPC-3 cells [1]; cromolyn 100 μM
  BxPC-3 cells invaded, difference versus 0 μM: 11.7%
  BxPC-3 cells invaded, mean: 7.7%
BxPC-3 cells [2]; 1-100 μM, alone or with gemcitabine 1 μM
  BxPC-3 cell viability: inhibit BxPC-3 cell viability
BxPC-3 cells [2]; with gemcitabine 1 μM
  concentration giving the same level of cell reduction in combination with gemcitabine: 100 µM
[3]
  binding to S100 proteins: bind
[4]
  permeability to cells: impermeant to cells
S100P binding with RAGE
  concentration achieving the same level of S100P inhibition: 5 µM
  interaction between S100P with RAGE: blocked
